Test results published in patent publication US6737383B1, “Herbicidal oxadiazolidines” (priority 1999, dated 2004).

Key:
corn = assay: Test B pre/postemergence corn; assay type: in vivo, Zea mays
Procedure, shortened: (§1)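 Response is a visual 0-to-10 score relative to untreated plants, where 0 means no effect and 10 means complete control, taken twelve to sixteen days after application. Treatments went onto soil at planting and onto foliage of 1- to 4-leaf plants, using a surfactant-containing non-phytotoxic solvent.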

rape = assay: Test B pre/postemergence rape; assay type: in vivo, Brassica napus
Procedure, shortened: as §1

soybean = assay: Test B pre/postemergence soybean; assay type: in vivo, Glycine max
Procedure, shortened: as §1

smallflower flatsedge = assay: Test B flood test smallflower flatsedge; assay type: in vivo, Cyperus difformis
Procedure, shortened: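 Read-out is a visual response score from 0 (no effect) to 10 (complete control), assigned by comparison with untreated controls. Treatment was applied at the 2-leaf stage, and plants stayed in the greenhouse for twelve to sixteen days before scoring.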

winter wheat [1] = assay: Test E winter wheat; assay type: in vivo, Triticum aestivum; settings: Postemergence
Procedure: […] All plant species were grown using normal greenhouse practices. Crop and weed species include annual bluegrass (Poa annua), blackgrass (Alopecurus myosuroides), black nightshade (Solanum nigra), chickweed (Stellaria media), common poppy (Papaver rhoeas), deadnettle (Lamium amplexicaule), downy brome (Bromus tectorum), field violet (Viola arvensis), galium (Galium aparine), green foxtail (Setaria viridis), Italian ryegrass (Lolium multiflorum), jointed goatgrass (Aegilops cylindrica), kochia (Kochia scoparia), lambsquarters (Chenopodium album), littleseed canarygrass (Phalaris minor), rape (Brassica napus), redroot pigweed (Amaranthus retroflexus), Russian thistle (Salsola kali), scentless chamomile (Matricaria inodora), spring barley (Hordeum vulgare), sugar beet (Beta vulgaris), sunflower (Helianthus annuus), ivyleaf speedwell (Veronica hederaefolia), spring wheat (Triticum aestivum), winter wheat (Triticum aestivum), wild buckwheat (Polygonum convolvulus), wild mustard (Sinapis arvensis), wild oat (Avena fatua), windgrass (Apera spica-venti) and winter barley (Hordeum vulgare).
Treated plants and untreated controls were maintained in a greenhouse for approximately 21 to 28 days, after which all treated plants were compared to untreated controls and visually evaluated. […] A dash response (-) means no test result.

blackgrass = assay: Test E blackgrass; assay type: in vivo, Alopecurus myosuroides; settings: Preemergence
green foxtail = assay: Test E green foxtail; assay type: in vivo, Setaria viridis; settings: Preemergence
Italian ryegrass = assay: Test E Italian ryegrass; assay type: in vivo, Lolium multiflorum; settings: Preemergence
winter wheat [2] = assay: Test E winter wheat; assay type: in vivo, Triticum aestivum; settings: Preemergence
wild oat = assay: Test E wild oat; assay type: in vivo, Avena fatua; settings: Preemergence
winter barley = assay: Test E winter barley; assay type: in vivo, Hordeum vulgare; settings: Preemergence
[3] = Postemergence, Rate 125 g/ha, scale of 0 to 10 where 0 is no effect and 10 is complete control
[4] = Postemergence, Rate 250 g/ha, scale 0 to 10, 0 no effect, 10 complete control
[5] = Preemergence, Rate 62 g/ha, scale 0 to 10 (0 no effect, 10 complete control)
[6] = Preemergence, Rate 125 g/ha, scale 0 to 10 (0 no effect, 10 complete control)
[7] = Preemergence, Rate 250 g/ha, scale of 0 to 10 where 0 is no effect and 10 is complete control
[8] = Preemergence, Rate 500 g/ha, scale 0 to 10 (0 no effect, 10 complete control)
[9] = Rate 62 g/ha, Postemergence, scale of 0 to 10 where 0 is no effect and 10 is complete control
[10] = Rate 500 g/ha, Postemergence, scale 0 to 10, 0 no effect, 10 complete control
[11] = Rate 250 g/ha, Postemergence, scale 0 to 10, 0 is no effect, 10 is complete control
[12] = Postemergence (flood test species), Rate 125 g/ha, scale of 0 to 10 where 0 is no effect and 10 is complete control
[13] = Rate 62 g/ha, Postemergence section, flood test species, scale of 0 to 10 where 0 is no effect and 10 is complete control
[14] = Rate 250 g/ha, Postemergence (flood test), scale 0 to 10, 0 is no effect, 10 is complete control
[15] = Rate 62 g/ha, 0 to 100 scale, 0 no effect, 100 complete control
[16] = Rate 125 g/ha, 0 to 100 scale (0 no effect, 100 complete control)
[17] = Preemergence, Rate 62 g/ha, scale of 0 to 10 where 0 is no effect and 10 is complete control
[18] = Preemergence, Rate 125 g/ha, 0 is no effect, 10 is complete control
[19] = Preemergence, Rate 250 g/ha, scale 0 to 10, 0 is no effect, 10 is complete control
[20] = Rate 500 g/ha, Postemergence, scale 0 to 10
[21] = Rate 500 g/ha, 0 to 100 scale where 0 is no effect and 100 is complete control

CC(C)N(C(=O)n1oc(=O)n(C(C)C)c1=O)c1ccccc1 [Compound 113]
Corn plant response rating (corn; [3]): 1
Corn plant response rating (corn; [4]): 5
Corn plant response rating (corn; [5]): 3
Plant response rating, Corn (corn; [6]): 4
Plant response rating, Corn (corn; [7]): 8
Corn plant response rating (corn; [8]): 10
Corn plant response rating (corn; [9]): 0
Corn plant response rating (corn; [10]): 6
Rape plant response rating (rape; [3]): 3
Rape plant response rating (rape; [4]): 7
Rape plant response rating (rape; [5]): 4
Plant response rating, Rape (rape; [6]): 7
Plant response rating, Rape (rape; [7]): 10
Rape plant response rating (rape; [8]): 10
Rape plant response rating (rape; [9]): 0
Rape plant response rating (rape; [10]): 7
Soybean plant response rating (soybean; [3]): 6
Soybean plant response rating (soybean; [5]): 3
Plant response rating, Soybean (soybean; [6]): 8
Plant response rating, Soybean (soybean; [7]): 9
Soybean plant response rating (soybean; [8]): 9
Soybean plant response rating (soybean; [9]): 6
Plant response rating, Soybean (soybean; [11]): 7
Soybean plant response rating (soybean; [10]): 7
S. Flatsedge plant response rating (smallflower flatsedge; [12]): 0
S. Flatsedge plant response rating (smallflower flatsedge; Pre-emergence, Rate 1000 g/ha, scale 0 to 10 (0 no effect, 10 complete control)): 0
S. Flatsedge plant response rating (smallflower flatsedge; [13]): 0
Plant response rating, S. Flatsedge (smallflower flatsedge; [14]): 0
S. Flatsedge plant response rating (smallflower flatsedge; Rate 250 g/ha, headed Pre-emergence (flood test species), scale 0 to 10 (0 no effect, 10 complete control)): 0
Plant response rating, S. Flatsedge (smallflower flatsedge; Rate 500 g/ha, headed Pre-emergence (flood test species), scale 0 to 10 (0 no effect, 10 complete control)): 0
S. Flatsedge plant response rating (smallflower flatsedge; Rate 500 g/ha, listed under Postemergence (flood test species), scale 0 to 10, 0 no effect, 10 complete control): 0
S. Flatsedge plant response rating (smallflower flatsedge; Rate 2000 g/ha, Pre-emergence (as headed), scale 0 to 10): 9
Plant response rating, Wheat (winter) (winter wheat [1]; Rate 62 g/ha, 0 to 100 scale): 15
Plant response rating, Wheat (winter) (winter wheat [1]; Rate 125 g/ha, 0 to 100 scale): 30
Plant response rating, Wheat (winter) (winter wheat [1]; Rate 250 g/ha, 0 to 100 scale (0 no effect, 100 complete control)): 70
Plant response rating, Blackgrass (blackgrass; [15]): 60
Plant response rating, Blackgrass (blackgrass; [16]): 30
Plant response rating, Blackgrass (blackgrass; Rate 250 g/ha, 0 to 100 scale): 85
Plant response rating, Green foxtail (green foxtail; [15]): 55
Plant response rating, Green foxtail (green foxtail; [16]): 70
Plant response rating, Green foxtail (green foxtail; Rate 250 g/ha, 0 to 100 scale): 85
Plant response rating, I. Ryegrass (Italian ryegrass; [15]): 50
Plant response rating, I. Ryegrass (Italian ryegrass; [16]): 50
Plant response rating, I. Ryegrass (Italian ryegrass; Rate 250 g/ha, 0 to 100 scale): 100
Plant response rating, Wheat (winter) (winter wheat [2]; [15]): 40
Plant response rating, Wheat (winter) (winter wheat [2]; [16]): 50
Plant response rating, Wheat (winter) (winter wheat [2]; Rate 250 g/ha, 0 to 100 scale): 60
Plant response rating, Wild oat (wild oat; [15]): 20
Plant response rating, Wild oat (wild oat; [16]): 30
Plant response rating, Barley (winter) (winter barley; [15]): 10
Plant response rating, Barley (winter) (winter barley; [16]): 10
Plant response rating, Barley (winter) (winter barley; Rate 250 g/ha, 0 to 100 scale): 85

Cc1nsc(C)c1-n1c(=O)on(C(=O)N(c2ccc(F)cc2F)C(C)C)c1=O [Compound 158]
Corn plant response rating (corn; [3]): 0
Corn plant response rating (corn; [17]): 0
Corn plant response rating (0 to 10 scale) (corn; [18]): 0
Corn plant response rating (corn; [19]): 2
Corn plant response rating (corn; [8]): 2
Corn plant response rating (corn; [9]): 0
Plant response rating, Corn (corn; [11]): 0
Corn plant response rating (corn; [20]): 0
Rape plant response rating (rape; [3]): 0
Rape plant response rating (rape; [17]): 0
Rape plant response rating (0 to 10 scale) (rape; [18]): 0
Rape plant response rating (rape; [19]): 0
Rape plant response rating (rape; [8]): 0
Rape plant response rating (rape; [9]): 0
Plant response rating, Rape (rape; [11]): 0
Rape plant response rating (rape; [20]): 0
Soybean plant response rating (soybean; [3]): 3
Soybean plant response rating (soybean; [17]): 0
Soybean plant response rating (0 to 10 scale) (soybean; [18]): 0
Soybean plant response rating (soybean; [19]): 0
Soybean plant response rating (soybean; [8]): 0
Soybean plant response rating (soybean; [9]): 3
Plant response rating, Soybean (soybean; [11]): 4
Soybean plant response rating (soybean; [20]): 5
S. Flatsedge plant response rating (smallflower flatsedge; [12]): 0
S. Flatsedge plant response rating (smallflower flatsedge; [13]): 0
Plant response rating, S. Flatsedge (smallflower flatsedge; [14]): 0
S. Flatsedge plant response rating (smallflower flatsedge; Rate 500 g/ha, listed under Postemergence (flood test species), scale 0 to 10): 0
Plant response rating, Wheat (winter) (winter wheat [1]; Rate 62 g/ha, 0 to 100 scale): 10
Plant response rating, Wheat (winter) (winter wheat [1]; Rate 125 g/ha, 0 to 100 scale): 15
Plant response rating, Wheat (winter) (winter wheat [1]; Rate 500 g/ha, 0 to 100 scale, 0 no effect, 100 complete control): 30
Wheat (winter) plant response rating (winter wheat [1]; Rate 250 g/ha, 0 to 100 scale where 0 is no effect and 100 is complete control): 40
Plant response rating, Blackgrass (blackgrass; [15]): 10
Plant response rating, Blackgrass (blackgrass; [16]): 20
Blackgrass plant response rating (0 to 100 scale) (blackgrass; Rate 250 g/ha): 50
Plant response rating, Blackgrass (blackgrass; [21]): 50
Plant response rating, Green foxtail (green foxtail; [15]): 0
Plant response rating, Green foxtail (green foxtail; [16]): 10
Green foxtail plant response rating (0 to 100 scale) (green foxtail; Rate 250 g/ha): 20
Plant response rating, Green foxtail (green foxtail; [21]): 50
Plant response rating, I. Ryegrass (Italian ryegrass; [15]): 10
Plant response rating, I. Ryegrass (Italian ryegrass; [16]): 20
I. Ryegrass plant response rating (0 to 100 scale) (Italian ryegrass; Rate 250 g/ha): 50
Plant response rating, I. Ryegrass (Italian ryegrass; [21]): 50
Plant response rating, Wheat (winter) (winter wheat [2]; [15]): 0
Plant response rating, Wheat (winter) (winter wheat [2]; [16]): 10
Wheat (winter) plant response rating (0 to 100 scale) (winter wheat [2]; Rate 250 g/ha): 30
Plant response rating, Wild oat (wild oat; [15]): 50
Plant response rating, Wild oat (wild oat; [16]): 50
Wild oat plant response rating (0 to 100 scale) (wild oat; Rate 250 g/ha): 50
Plant response rating, Wild oat (wild oat; [21]): 60
Plant response rating, Barley (winter) (winter barley; [15]): 10
Plant response rating, Barley (winter) (winter barley; [16]): 20
Barley (winter) plant response rating (0 to 100 scale) (winter barley; Rate 250 g/ha): 30
Plant response rating, Barley (winter) (winter barley; [21]): 30
